The assay has as its target Nociceptin receptor (Homo sapiens, UniProt P41146).

As usually defined, the Ki is the dissociation constant of the complex between target and ligand, obtained from inhibition or displacement. Lower therefore signals a stronger hold on the target.

Chain of Nociceptin receptor (P41146 whole entry): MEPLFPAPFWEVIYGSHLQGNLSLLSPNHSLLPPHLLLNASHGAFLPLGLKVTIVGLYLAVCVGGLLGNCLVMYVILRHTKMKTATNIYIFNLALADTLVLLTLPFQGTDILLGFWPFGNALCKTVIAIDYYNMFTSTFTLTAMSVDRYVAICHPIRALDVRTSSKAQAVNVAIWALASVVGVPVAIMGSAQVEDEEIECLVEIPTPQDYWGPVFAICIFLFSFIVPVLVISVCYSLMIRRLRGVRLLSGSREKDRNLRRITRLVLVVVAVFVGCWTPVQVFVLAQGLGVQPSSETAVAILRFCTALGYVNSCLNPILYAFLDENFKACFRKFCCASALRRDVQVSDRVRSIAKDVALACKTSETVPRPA

Ac-RYYRWKKKKKKK-NH2: the affinity corresponds to a Ki of 0.5 nM. That is a sub-nanomolar value.

For the origin of these results see BindingDB's records for doi:10.1124/jpet.105.083436 (Louisiana State University, 2005).
